This passage reports IC50 results from US9242945B2, “Substituted 2-benzylidene-2H-benzo[b][1,4]thiazin-3(4H)-ones, derivatives thereof, and therapeutic uses thereof” (TEMPLE UNIVERSITY—OF THE COMMONWEALTH SYSTEM OF HIGHER …, priority 2011, dated 2016).

pIC50: −log10 of the molar value. Read-outs that look alike come from different tables or passages of the source.

For orientation: pIC50 means the negative decadic logarithm of the IC50, by convention in mol/L.

The subject of assay [1] is K562 (chronic myelogenous leukemia; leukemia cell line +ve for Bcr-Abl). Description: Cytotoxicity assay, K562 tumor cells. Format: cell-based. The note with it: Homo sapiens, K562, 96 h treatment. How it is done:
(§1) The effect of the compounds of the invention on tumor cells was determined by the assay described by Latham et al., Oncogene 12:827-837 (1996). Tumor cells K562 (chronic myelogenous leukemia; leukemia cell line +ve for Bcr-Abl) or DU145 (prostate cancer) were plated in 12-well dishes at a cell density of 2.5×10^4 cells well. The plated cells were treated 24 hours later with a compound of the invention dissolved in DMSO at multiple concentrations ranging from 0.01 μM to 100 μM. The plates were examined 96 hours later under an inverted microscope, Olympus CK-2 using a 10× objective, and compound activity was noted by physical observation. When necessary, the total number of viable cells was determined by trypsinizing the wells and counting the number of viable cells, as determined by trypan blue exclusion, using a hemacytometer. Where “Lower” and “Upper” value are provided in Table 5, the IC50 was determined to be within that range. When only a “Lower” value is provided and no “Upper” value is listed, the IC50 was that value, or less than or greater than that value, as set forth in the Table.
(§2) The cytotoxicity of Compound 42, (Z)-6-((2,6-dichlorobenzyl)sulfonyl)-2-(4-hydroxy-3-nitrobenzylidene)-2H-benzo[b][1,4]thiazin-3(4H)-one, was determined according the assay method of Example 7 on the prostate (androgen dependent or independent), breast and pancreatic cancer cell lines listed in Table 6A, below, and the additional cell lines listed in Table 6B, below. The human mesenchymal stem cell line HMSC.hTERT and normal human fibroblast cell line HFL was included in the test.

Another assay has as its system DU145 (prostate cancer). Description: Cytotoxicity assay, DU145 tumor cells. Format: cell-based. The note with it: Homo sapiens, DU-145, 96 h treatment. How it is done:
as §1, §2

Setting [2] is: lower limit of the IC50 range, or the IC50 itself (or its bound) where no Upper value is listed, read-out: K562 IC50 (μm) Lower (μm).
[3] abbreviates: upper limit of the IC50 range, read-out: K562 IC50 (μm) Upper (μm).
Where [4] appears, read: lower limit of the IC50 range, or the IC50 itself (or its bound) where no Upper value is listed, read-out: DU145 IC50 (μm) Lower (μm).
Where [5] appears, read: upper limit of the IC50 range, read-out: DU145 IC50 (μm) Upper (μm).

With `CC(=O)Oc1ccc(/C=C2\Sc3ccc(Cl)cc3NC2=O)cc1[N+](=O)[O-]` [Compound 1, (Z)-4-((6-chloro-3-oxo-3,4-dihydro-2H-benzo[b][1,4]thiazin-2-ylidene)methyl)-2-nitrophenyl acetate], the pIC50 in assay [1] (setting [2]) is not above 5.00; in assay [1] (setting [3]) it was not below 4.60; in the assay on DU145 (prostate cancer) (setting [4]) it was not above 6.00; with DU145 (prostate cancer) (setting [5]), not below 5.00.
The corresponding values for `COc1ccc2c(c1)S/C(=C\c1ccc(OC(C)=O)c([N+](=O)[O-])c1)C(=O)N2` [Compound 2, (Z)-4-((7-methoxy-3-oxo-3,4-dihydro-2H-benzo[b][1,4]thiazin-2-ylidene)methyl)-2-nitrophenyl acetate] are not above 6.00, not below 5.00, not above 6.00 and not below 5.00.
As to `CC(=O)Oc1ccc(/C=C2\Sc3cc(Br)ccc3NC2=O)cc1[N+](=O)[O-]` [Compound 3, (Z)-4-((7-bromo-3-oxo-3,4-dihydro-2H-benzo[b][1,4]thiazin-2-ylidene)methyl)-2-nitrophenyl acetate], the negative-log IC50 (pIC50) in assay [1] (setting [2]) was not above 6.00; in assay [1] (setting [3]), not below 5.00; in the assay with DU145 (prostate cancer) (setting [4]) it was not above 5.00; in the assay with DU145 (prostate cancer) (setting [5]), not below 4.60.
As for `CC(=O)Oc1ccc(/C=C2\Sc3cc(C)ccc3NC2=O)cc1[N+](=O)[O-]` [Compound 4, (Z)-4-((7-methyl-3-oxo-3,4-dihydro-2H-benzo[b][1,4]thiazin-2-ylidene)methyl)-2-nitrophenyl acetate], the negative logarithm of the IC50 (pIC50) in assay [1] (setting [2]) is not above 6.00; in assay [1] (setting [3]) it was not below 5.00; with DU145 (prostate cancer) (setting [4]), not above 6.00; in the assay on DU145 (prostate cancer) (setting [5]), not below 5.00.
In the case of `CC(=O)Oc1ccc(/C=C2\Sc3cc(C(=O)O)ccc3NC2=O)cc1[N+](=O)[O-]` [Compound 5, (Z)-2-(4-acetoxy-3-nitrobenzylidene)-3-oxo-3,4-dihydro-2H-benzo[b][1,4]thiazine-7-carboxylic acid], the figures for the pIC50 (in assay [1] (setting [2]); in assay [1] (setting [3]); in the assay on DU145 (prostate cancer) (setting [4])) were not above 4.30, not below 4.00 and less than 4.00, respectively.
On to `CC(=O)Oc1ccc(/C=C2\Sc3cc(F)ccc3NC2=O)cc1[N+](=O)[O-]` [Compound 6, (Z)-4-((7-fluoro-3-oxo-3,4-dihydro-2H-benzo[b][1,4]thiazin-2-ylidene)methyl)-2-nitrophenyl acetate], for which the pIC50 in assay [1] (setting [2]) is not above 6.00; in assay [1] (setting [3]), not below 5.00; in the assay with DU145 (prostate cancer) (setting [5]), not below 6.00.
Turning to `CC(=O)Oc1ccc(/C=C2\Sc3ccc(F)cc3NC2=O)cc1[N+](=O)[O-]` [Compound 7, (Z)-4-((6-fluoro-3-oxo-3,4-dihydro-2H-benzo[b][1,4]thiazin-2-ylidene)methyl)-2-nitrophenyl acetate], the negative logarithm of the IC50 (pIC50) was not above 6.00 in assay [1] (setting [2]), not below 5.00 in assay [1] (setting [3]), not above 6.00 in the assay on DU145 (prostate cancer) (setting [4]) and not below 5.00 with DU145 (prostate cancer) (setting [5]).
With `CC(=O)Oc1ccc(/C=C2\Sc3ccc(S(=O)(=O)Cc4c(Cl)cccc4Cl)cc3NC2=O)cc1[N+](=O)[O-]` [Compound 8, (Z)-4-((6-((2,6-dichlorobenzyl)sulfonyl)-3-oxo-3,4-dihydro-2H-benzo[b][1,4]thiazin-2-ylidene)methyl)-2-nitrophenyl acetate], the negative-log IC50 (pIC50) was 7.12 in assay [1] (setting [2]) and 7.00 with DU145 (prostate cancer) (setting [4]).
`CC(=O)Oc1ccc(/C=C2\Sc3ccc(S(=O)(=O)Cc4c(Cl)cccc4Cl)cc3NC2=O)cc1` [Compound 9, (Z)-4-((6-((2,6-dichlorobenzyl)sulfonyl)-3-oxo-3,4-dihydro-2H-benzo[b][1,4]thiazin-2-ylidene)methyl)phenyl acetate]: the pIC50 (in assay [1] (setting [2]); in the assay on DU145 (prostate cancer) (setting [4])) was more than 6.00 in each case.
Turning to `O=C1Nc2cc(S(=O)(=O)Cc3c(Cl)cccc3Cl)ccc2S/C1=C\c1ccccc1` [Compound 10, (Z)-2-benzylidene-6-((2,6-dichlorobenzyl)sulfonyl)-2H-benzo[b][1,4]thiazin-3(4H)-one], the pIC50 is not above 6.00 in assay [1] (setting [2]), not below 5.00 in assay [1] (setting [3]) and more than 6.00 in the assay with DU145 (prostate cancer) (setting [4]).
In the case of `COc1ccc(/C=C2\Sc3ccc(S(=O)(=O)Cc4c(Cl)cccc4Cl)cc3NC2=O)cc1[N+](=O)[O-]` [Compound 11, (Z)-6-((2,6-dichlorobenzyl)sulfonyl)-2-(4-methoxy-3-nitrobenzylidene)-2H-benzo[b][1,4]thiazin-3(4H)-one], the negative-log IC50 (pIC50) in assay [1] (setting [2]) is not above 6.60; in assay [1] (setting [3]) it was not below 6.30; in the assay on DU145 (prostate cancer) (setting [4]), not above 6.60; in the assay with DU145 (prostate cancer) (setting [5]) it was not below 6.30.
Regarding `COc1ccc(/C=C2\Sc3ccc(S(=O)(=O)Cc4c(Cl)cccc4Cl)cc3NC2=O)cc1N` [Compound 12, (Z)-2-(3-amino-4-methoxybenzylidene)-6-((2,6-dichlorobenzyl)sulfonyl)-2H-benzo[b][1,4]thiazin-3(4H)-one], the pIC50 in assay [1] (setting [2]) is not above 7.00; in assay [1] (setting [3]), not below 6.60; in the assay on DU145 (prostate cancer) (setting [4]), not above 6.60; in the assay on DU145 (prostate cancer) (setting [5]), not below 6.30.
Regarding `CN1CCN(c2ccc(/C=C3\Sc4ccc(S(=O)(=O)Cc5c(Cl)cccc5Cl)cc4NC3=O)cc2)CC1` [Compound 13, (Z)-6-((2,6-dichlorobenzyl)sulfonyl)-2-(4-(4-methylpiperazin-1-yl)benzylidene)-2H-benzo[b][1,4]thiazin-3(4H)-one], the pIC50 in assay [1] (setting [2]) was not above 6.30; in assay [1] (setting [3]), not below 6.00; with DU145 (prostate cancer) (setting [4]), not above 6.00; with DU145 (prostate cancer) (setting [5]), not below 5.00.
On the same counts, the results for `O=C1Nc2cc(S(=O)(=O)Cc3c(Cl)cccc3Cl)ccc2S/C1=C\c1ccc([N+](=O)[O-])cc1` [Compound 14, (Z)-6-((2,6-dichlorobenzyl)sulfonyl)-2-(4-nitrobenzylidene)-2H-benzo[b][1,4]thiazin-3(4H)-one] are not above 6.00, not below 5.00, not above 6.00 and not below 5.00.
Regarding `Nc1ccc(/C=C2\Sc3ccc(S(=O)(=O)Cc4c(Cl)cccc4Cl)cc3NC2=O)cc1` [Compound 15, (Z)-2-(4-aminobenzylidene)-6-((2,6-dichlorobenzyl)sulfonyl)-2H-benzo[b][1,4]thiazin-3(4H)-one], the negative logarithm of the IC50 (pIC50) was 7.52 in assay [1] (setting [2]) and 7.40 with DU145 (prostate cancer) (setting [4]).
As to `O=C1Nc2cc(S(=O)(=O)Cc3c(Cl)cccc3Cl)ccc2S/C1=C\c1ccc(F)cc1` [Compound 16, (Z)-6-((2,6-dichlorobenzyl)sulfonyl)-2-(4-fluorobenzylidene)-2H-benzo[b][1,4]thiazin-3(4H)-one], the pIC50 in assay [1] (setting [2]) was not above 6.00; in assay [1] (setting [3]) it was not below 5.00; in the assay with DU145 (prostate cancer) (setting [4]), not above 6.00; with DU145 (prostate cancer) (setting [5]), not below 5.00.
As to `O=C1Nc2cc(S(=O)(=O)Cc3c(Cl)cccc3Cl)ccc2S/C1=C\c1ccc(Cl)cc1` [Compound 17, (Z)-2-(4-chlorobenzylidene)-6-((2,6-dichlorobenzyl)sulfonyl)-2H-benzo[b][1,4]thiazin-3(4H)-one], the negative-log IC50 (pIC50) is not above 6.00 in assay [1] (setting [2]), not below 5.00 in assay [1] (setting [3]), not above 6.00 in the assay with DU145 (prostate cancer) (setting [4]) and not below 5.00 with DU145 (prostate cancer) (setting [5]).
For the compound `O=C1Nc2cc(S(=O)(=O)Cc3c(Cl)cccc3Cl)ccc2S/C1=C\c1ccc(Br)cc1` [Compound 18, (Z)-2-(4-bromobenzylidene)-6-((2,6-dichlorobenzyl)sulfonyl)-2H-benzo[b][1,4]thiazin-3(4H)-one], the negative-log IC50 (pIC50) in assay [1] (setting [2]) is not above 6.00; in assay [1] (setting [3]), not below 5.00; in the assay on DU145 (prostate cancer) (setting [4]), not above 6.00; with DU145 (prostate cancer) (setting [5]), not below 5.00.
With `O=C1Nc2cc(S(=O)(=O)Cc3c(Cl)cccc3Cl)ccc2S/C1=C\c1ccc(Cl)cc1Cl` [Compound 22, (Z)-6-((2,6-dichlorobenzyl)sulfonyl)-2-(2,4-dichlorobenzylidene)-2H-benzo[b][1,4]thiazin-3(4H)-one], the pIC50 was not above 6.00 in assay [1] (setting [2]), not below 5.00 in assay [1] (setting [3]), not above 6.00 with DU145 (prostate cancer) (setting [4]) and not below 5.00 in the assay with DU145 (prostate cancer) (setting [5]).
Consider `CC(=O)n1cc(/C=C2\Sc3ccc(S(=O)(=O)Cc4c(Cl)cccc4Cl)cc3NC2=O)c2ccccc21` [Compound 26, (Z)-2-((1-acetyl-1H-indol-3-yl)methylene)-6-((2,6-dichlorobenzyl)sulfonyl)-2H-benzo[b][1,4]thiazin-3(4H)-one], for which the pIC50 in assay [1] (setting [2]) is not above 6.30; in assay [1] (setting [3]) it was not below 6.00; with DU145 (prostate cancer) (setting [4]), not above 6.30; in the assay on DU145 (prostate cancer) (setting [5]), not below 6.00.
As to `O=C1Nc2cc(S(=O)(=O)Cc3c(Cl)cccc3Cl)ccc2S/C1=C\c1ccc(Cl)c([N+](=O)[O-])c1` [Compound 29, (Z)-2-(4-chloro-3-nitrobenzylidene)-6-((2,6-dichlorobenzyl)sulfonyl)-2H-benzo[b][1,4]thiazin-3(4H)-one], the negative-log IC50 (pIC50) in assay [1] (setting [2]) was not above 6.00; in assay [1] (setting [3]), not below 5.00; in the assay with DU145 (prostate cancer) (setting [4]) it was not above 6.30; in the assay with DU145 (prostate cancer) (setting [5]) it was not below 6.00.
